According to ChEMBL document CHEMBL4765295, “Synthesis, pharmacological profile and 2D-QSAR studies of curcumin-amino acid conjugates as potential drug candidates” (Eur J Med Chem, 2020):
Several values for one entry are separate records, joined by “and”; a condition that tells them apart may be missing. Identical values can stand only once.

Columns and labels:
Streptococcus pyogenes = assay: Antibacterial activity against Streptococcus pyogenes ATCC 19615 incubated for 18 hrs by agar dilution method; type: functional
Peritoneal macrophage [1] = assay: Antiinflammatory activity in […] mouse Peritoneal macrophages assessed as reduction in LPS-induced NO production by measuring reduction in stimulation index at 10 uM preincubated for 1 hr followed by LPS stimulation measured after 24 hrs by Griess method (reference value: 27.31 +/- 2.56 uM); type: functional; details: time 25 hrs
Splenocyte [2] = assay: Immunomodulatory activity in Swiss albino mouse splenocytes assessed as cell viability at 10 uM by measuring inhibition of stimulation index incubated for 72 hrs in presence of mitogenic stimulus phytohaemagglutinin by MTT assay relative to indomethacin; type: functional; details: read-out: Activity
Rattus norvegicus [3] = assay: Anti-inflammatory activity in Wistar rat assessed as inhibition of carrageenan-induced paw edema at 10 mg/kg, ip pretreated for 1 hr followed by carrageenan challenge and measured after 2 hr relative to control (reference value: 0.00 +/-0.03 %); type: functional; details: time 3 hrs
Rattus norvegicus [4] = assay: Anti-inflammatory activity in Wistar rat assessed as inhibition of carrageenan-induced paw edema at 10 mg/kg, ip pretreated for 1 hr followed by carrageenan challenge and measured after 1 hr relative to control (reference value: 0.00 +/-0.02 %); type: functional; details: time 2 hrs
Rattus norvegicus [5] = assay: Anti-inflammatory activity in Wistar rat assessed as inhibition of carrageenan-induced paw edema at 10 mg/kg, ip pretreated for 1 hr followed by carrageenan challenge and measured after 4 hr relative to indomethacin; type: functional; details: time 5 hrs
Rattus norvegicus [6] = assay: Antiinflammatory activity in Wistar rat model of carrageenan-induced paw edema assessed as reduction in thickness of paw edema at 10 mg/kg, ip pretreated for 1 hr followed by carrageenan challenge and measured after 24 hrs (reference value: 0.83 +/-0.08 mm); type: functional; details: time 25 hrs
Candida albicans = assay: Antifungal activity against Candida albicans incubated for 18 to 24 hrs by CLSI method; type: functional; details: time 18-24 hrs
Rattus norvegicus [7] = assay: Antiinflammatory activity in Wistar rat model of carrageenan-induced paw edema assessed as reduction in thickness of paw edema at 10 mg/kg, ip pretreated for 1 hr followed by carrageenan challenge and measured after 1 hr (reference value: 2.41 +/-0.05 mm); type: functional; details: time 1 hr after carrageenan
Rattus norvegicus [8] = assay: Anti-inflammatory activity in Wistar rat assessed as inhibition of carrageenan-induced paw edema at 10 mg/kg, ip pretreated for 1 hr followed by carrageenan challenge and measured after 24 hr relative to control (reference value: 0.00 +/-0.3 %); type: functional; details: time 25 hrs
Rattus norvegicus [9] = assay: Antiinflammatory activity in Wistar rat model of carrageenan-induced paw edema assessed as reduction in thickness of paw edema at 10 mg/kg, ip pretreated for 1 hr followed by carrageenan challenge and measured after 2 hrs (reference value: 2.06 +/-0.09 mm); type: functional; details: time 3 hrs
Splenocyte [10] = assay: Immunomodulatory activity in Swiss albino mouse splenocytes assessed as cell viability at 10 uM by measuring stimulation index incubated for 72 hrs in presence of mitogenic stimulus phytohaemagglutinin by MTT assay (reference value: 1.00 +/- 0.24); type: functional
Pseudomonas aeruginosa = assay: Antibacterial activity against Pseudomonas aeruginosa ATCC 27853 incubated for 18 hrs by agar dilution assay; type: functional
Rattus norvegicus [11] = assay: Antiinflammatory activity in Wistar rat model of carrageenan-induced paw edema assessed as reduction in thickness of paw edema at 10 mg/kg, ip pretreated for 1 hr followed by carrageenan challenge and measured after 4 hrs (reference value: 1.40 +/-0.10 mm); type: functional; details: time 5 hrs
Staphylococcus aureus = assay: Antibacterial activity against Staphylococcus aureus ATCC 25923 incubated for 18 hrs by agar dilution method; type: functional
Peritoneal macrophage [12] = assay: Antiinflammatory activity in […] mouse Peritoneal macrophages assessed as inhibition of LPS-induced NO production at 10 uM preincubated for 1 hr followed by LPS stimulation measured after 24 hrs by Griess method relative to control (reference value: 0.0 %); type: functional; set-up: scale not given: the % may be the effect or the level left; details: time 25 hrs
Salmonella typhimurium = assay: Antibacterial activity against Salmonella typhimurium ATCC 19430 incubated for 18 hrs by agar dilution assay; type: functional, Salmonella enterica subsp. enterica serovar Typhimurium; details: Salmonella enterica
Rattus norvegicus [13] = assay: Anti-inflammatory activity in Wistar rat assessed as inhibition of carrageenan-induced paw edema at 10 mg/kg, ip pretreated for 1 hr followed by carrageenan challenge and measured after 3 hr relative to control (reference value: 0.00 +/-0.1 %); type: functional; details: time 4 hrs
Rattus norvegicus [14] = assay: Anti-inflammatory activity in Wistar rat assessed as inhibition of carrageenan-induced paw edema at 10 mg/kg, ip pretreated for 1 hr followed by carrageenan challenge and measured after 4 hr relative to control (reference value: 0.00 +/-0.4 %); type: functional; details: time 5 hrs
Rattus norvegicus [15] = assay: Antiinflammatory activity in Wistar rat model of carrageenan-induced paw edema assessed as reduction in thickness of paw edema at 10 mg/kg, ip pretreated for 1 hr followed by carrageenan challenge and measured after 3 hrs (reference value: 1.79 +/-0.07 mm); type: functional; details: time 4 hrs

MIC (Streptococcus pyogenes)	MIC (Candida albicans)	MIC (Pseudomonas aeruginosa)	MIC (Staphylococcus aureus)	MIC (Salmonella typhimurium)	SMILES	Activity (Peritoneal macrophage [1]) [µM]	viability at 10 µM (Splenocyte [2]) [%]	inhibition in vivo at 10 mg/kg (Rattus norvegicus [3]) [%]	inhibition in vivo at 10 mg/kg (Rattus norvegicus [4]) [%]	inhibition in vivo at 10 mg/kg (Rattus norvegicus [5]) [%]	Activity (Rattus norvegicus [6]) [mm]	Activity (Rattus norvegicus [7]) [mm]	inhibition in vivo at 10 mg/kg (Rattus norvegicus [8]) [%]	Activity (Rattus norvegicus [9]) [mm]	Activity_index (Splenocyte [10])	Activity (Rattus norvegicus [11]) [mm]	Activity (Peritoneal macrophage [12]) [%]	inhibition in vivo at 10 mg/kg (Rattus norvegicus [13]) [%]	inhibition in vivo at 10 mg/kg (Rattus norvegicus [14]) [%]	Activity (Rattus norvegicus [15]) [mm]
0.125 µg/mL and 0.176 µM	0.5 µg/mL and 0.703 µM	0.25 µg/mL and 0.352 µM	0.25 µg/mL and 0.352 µM	0.25 µg/mL and 0.352 µM	COc1cc(/C=C/C(=O)/C=C(O)/C=C/c2ccc(OC(=O)C(C)NC(=O)OC(C)(C)C)c(OC)c2)ccc1OC(=O)C(C)NC(=O)OC(C)(C)C (stereo not given)	18.88	67.9	16	11	46	0.59	2.15	29	1.74	1.78	0.84	30.88	25	40	1.34
0.5 µg/mL and 0.599 µM	1 µg/mL and 1.2 µM	0.25 µg/mL and 0.299 µM	0.125 µg/mL and 0.15 µM	0.125 µg/mL and 0.15 µM	COc1cc(/C=C/C(=O)/C=C(O)/C=C/c2ccc(OC(=O)[C@@H](NC(=O)OCc3ccccc3)C(C)C)c(OC)c2)ccc1OC(=O)[C@@H](NC(=O)OCc1ccccc1)C(C)C	25.76	42.1	20	51	14	0.81	1.17	2	1.65	2.87	1.23	5.68	19	12	1.45

Continued, molecule first:

SMILES	MIC (Streptococcus pyogenes)	MIC (Candida albicans)	MIC (Pseudomonas aeruginosa)	MIC (Staphylococcus aureus)	MIC (Salmonella typhimurium)	Activity (Peritoneal macrophage [1]) [µM]	viability at 10 µM (Splenocyte [2]) [%]	inhibition in vivo at 10 mg/kg (Rattus norvegicus [3]) [%]	inhibition in vivo at 10 mg/kg (Rattus norvegicus [4]) [%]	inhibition in vivo at 10 mg/kg (Rattus norvegicus [5]) [%]	Activity (Rattus norvegicus [6]) [mm]	Activity (Rattus norvegicus [7]) [mm]	inhibition in vivo at 10 mg/kg (Rattus norvegicus [8]) [%]	Activity (Rattus norvegicus [9]) [mm]	Activity_index (Splenocyte [10])	Activity (Rattus norvegicus [11]) [mm]	Activity (Peritoneal macrophage [12]) [%]	inhibition in vivo at 10 mg/kg (Rattus norvegicus [13]) [%]	inhibition in vivo at 10 mg/kg (Rattus norvegicus [14]) [%]	Activity (Rattus norvegicus [15]) [mm]
COc1cc(/C=C/C(=O)/C=C(O)/C=C/c2ccc(OC(=O)[C@@H](C)NC(=O)OC(C)(C)C)c(OC)c2)ccc1OC(=O)[C@@H](C)NC(=O)OC(C)(C)C	1 µg/mL and 1.41 µM	0.5 µg/mL and 0.703 µM	0.25 µg/mL and 0.352 µM	0.125 µg/mL and 0.176 µM	0.25 µg/mL and 0.352 µM	20.81	58.3	29	22	48	0.52	1.87	37	1.46	2.07	0.81	23.82	39	42	1.09
COc1cc(/C=C/C(=O)/C=C(O)/C=C/c2ccc(OC(=O)[C@H](Cc3ccccc3)NC(=O)OCC3c4ccccc4-c4ccccc43)c(OC)c2)ccc1OC(=O)[C@H](Cc1ccccc1)NC(=O)OCC1c2ccccc2-c2ccccc21	0.125 µg/mL and 0.113 µM	0.5 µg/mL and 0.452 µM	2 µg/mL and 1.81 µM	0.25 µg/mL and 0.226 µM	0.25 µg/mL and 0.226 µM	18.84	68.1	41	10	69	0.79	2.17	5	1.22	1.78	0.56	31.01	54	60	0.82
COc1cc(/C=C/C(=O)/C=C(O)/C=C/c2ccc(OC(=O)CNC(=O)OC(C)(C)C)c(OC)c2)ccc1OC(=O)CNC(=O)OC(C)(C)C	1 µg/mL and 1.47 µM	0.5 µg/mL and 0.732 µM	0.25 µg/mL and 0.366 µM	0.25 µg/mL and 0.366 µM	0.125 µg/mL and 0.183 µM	18.12	57.4	44	43	55	0.44	1.37	47	1.16	2.11	0.73	33.65	44	48	1
COc1cc(/C=C/C(=O)/C=C(O)/C=C/c2ccc(OC(=O)[C@@H](NC(=O)OCC3c4ccccc4-c4ccccc43)C(C)C)c(OC)c2)ccc1OC(=O)[C@@H](NC(=O)OCC1c2ccccc2-c2ccccc21)C(C)C	0.5 µg/mL and 0.494 µM	0.5 µg/mL and 0.494 µM	0.5 µg/mL and 0.494 µM	0.25 µg/mL and 0.247 µM	0.5 µg/mL and 0.494 µM	23.91	47.5	49	22	61	0.44	1.88	47	1.05	2.55	0.66	12.46	50	53	0.9
